This note sets out measurements from ChEMBL document CHEMBL1201862, “PubChem BioAssay data set” (2004).

Among the test systems are 786-0; A549; COLO 205; DU-145; EKVX; HOP-62; HOP-92; K562; LOX IMVI; MDA-N; NCI-H23; OVCAR-5; OVCAR-8; RPMI-8226; SK-MEL-2; SN12C; SW-620; BT-549.
Holding throughout (test): NCI anticancer screen, dose series, 48 h

Structures are written as SMILES.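 How tested: cells in 96-well plates exposed to compound for 48 hours at five concentrations. The concentration for 50% growth inhibition is given as GI50.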 Active and inactive are the calls of the source. No stated cut-off is given here; in the data, active = GI50 up to about 1.1 µM and inactive = higher. Where a SMILES comes first, the peptide text is derived from it. [ ]: non-standard residue; d: D form. Hiv = CC(C)[C@H](O)C(=O)O

Regarding `COc1ccc2c(c1)c1c3c(ccc4ncn2c43)N(CCO)CCN=1`, the GI50 is 0.0736 µM (active) in the test with 786-0; 0.218 µM (active) with A549; 0.101 µM (active) in the test on COLO 205; 0.282 µM (active) in the test with DU-145; 0.33 µM (active) in the test on EKVX; 0.132 µM (active) in the test on HOP-62. The GI50 in the test with HOP-92 was 2.07 µM (inactive); with K562, 0.0586 µM (active); with LOX IMVI, 0.151 µM (active); with MDA-N it was 0.214 µM (active); in the test with NCI-H23, 0.191 µM (active); in the test on OVCAR-5, 0.245 µM (active). Further, the GI50 was 0.0927 µM (active) in the test on OVCAR-8; 0.281 µM (active) in the test with RPMI-8226; 0.175 µM (active) with SK-MEL-2; 0.158 µM (active) in the test on SN12C; 0.802 µM (active) in the test on SW-620.
As for `CC(Nc1ncc2c(n1)-c1ccccc1OC2)C(=O)O` (centres undefined), the GI50 was > 100 µM (inactive) in the test on 786-0; > 100 µM (inactive) with A549; 35.6 µM (inactive) in the test on COLO 205; 30.3 µM (inactive) in the test with DU-145; 44.1 µM (inactive) with EKVX; 51.6 µM (inactive) in the test with HOP-62. For the same compound, the GI50 is 35.9 µM (inactive) with HOP-92; 99.8 µM (inactive) in the test with K562; > 100 µM (inactive) with LOX IMVI; > 100 µM (inactive) in the test on MDA-N; 86.5 µM (inactive) in the test on NCI-H23; > 100 µM (inactive) in the test on OVCAR-5. In addition, the GI50 in the test with OVCAR-8 was > 100 µM (inactive); in the test on RPMI-8226 it was 34.2 µM (inactive); with SK-MEL-2, > 100 µM (inactive); in the test on SN12C it was 59.7 µM (inactive); in the test with SW-620, > 100 µM (inactive).
Regarding `NC(Cc1ccccc1)C(=O)NC(Cc1ccccc1)NC(=O)C(Cc1c[nH]c2ccccc12)C(=O)O` (centres undefined), the GI50 with 786-0, in the test with A549, in the test with COLO 205, with DU-145, in the test with EKVX and with HOP-62 was > 100 µM (inactive) in each case. Moreover, the GI50 with HOP-92 is 34.8 µM (inactive); in the test on LOX IMVI it was > 100 µM (inactive); in the test with MDA-N it was > 100 µM (inactive); in the test on NCI-H23 it was > 100 µM (inactive); with OVCAR-5, > 100 µM (inactive); in the test with OVCAR-8 it was > 100 µM (inactive). The GI50 with RPMI-8226 was > 100 µM (inactive); with SK-MEL-2, 9.35 µM (inactive); in the test on SN12C, > 100 µM (inactive); in the test on SW-620 it was > 100 µM (inactive).
Consider `CCOC(=O)c1sc2[n+](c1C)C(=O)/C(=C/c1ccc([N+](=O)[O-])cc1)S2`, for which the GI50 with 786-0 is 22.2 µM (inactive); with A549, 23.5 µM (inactive); with COLO 205, 30.7 µM (inactive); in the test with DU-145, 31.3 µM (inactive); in the test on HOP-62 it was 20.7 µM (inactive); in the test with HOP-92, > 100 µM (inactive). Besides, the GI50 in the test on K562 is 20.9 µM (inactive); in the test on LOX IMVI, 25.2 µM (inactive); in the test with MDA-N, 27.7 µM (inactive); with NCI-H23, 16.1 µM (inactive); in the test on OVCAR-5, 31.7 µM (inactive); with OVCAR-8, 19.5 µM (inactive). In addition, the GI50 with RPMI-8226 is 10.4 µM (inactive); in the test with SK-MEL-2 it was 20.7 µM (inactive); with SN12C, 36.6 µM (inactive); with SW-620 it was 28.5 µM (inactive).
With `COP(=O)(OC)C(O)CC(C)C` (centres undefined), the GI50 in the test on 786-0, in the test on A549, in the test on COLO 205, with DU-145, in the test with EKVX and in the test with HOP-62 was > 100 µM (inactive) each time. Also, the GI50 with K562, in the test on MDA-N, with OVCAR-5, in the test with RPMI-8226, with SK-MEL-2 and in the test on SN12C was > 100 µM (inactive) throughout. In addition, the GI50 in the test with SW-620 is > 100 µM (inactive).
On to `N#CC(C#N)=C/C=C/c1ccccc1[N+](=O)[O-]`, for which the GI50 with 786-0 is 3.33 µM (inactive); in the test with A549, > 10 µM (inactive); in the test on COLO 205 it was 3.93 µM (inactive); in the test on DU-145, > 10 µM (inactive); with EKVX, > 10 µM (inactive); in the test on HOP-62, > 10 µM (inactive). Also, the GI50 in the test on HOP-92 is 5.08 µM (inactive); in the test on K562, 3.21 µM (inactive); in the test on LOX IMVI, 2.52 µM (inactive); in the test on MDA-N, 2.44 µM (inactive); in the test on NCI-H23, 4.45 µM (inactive); in the test with OVCAR-8, 1.96 µM (inactive). For the same compound, the GI50 is 3.19 µM (inactive) with RPMI-8226, > 10 µM (inactive) in the test with SK-MEL-2, > 10 µM (inactive) in the test on SN12C and 4.08 µM (inactive) in the test with SW-620.
`CC(C)[C@@H]1OC(=O)[C@@H](C)NC(=O)[C@@H]2CCCN2C1=O` (cyclo([Hiv]-Pro-[dA])): the GI50 in the test with 786-0, in the test on A549, in the test on COLO 205, with DU-145, with EKVX and with HOP-62 was > 100 µM (inactive) in each case. Further, the GI50 with HOP-92, in the test with LOX IMVI, in the test with MDA-N, in the test on NCI-H23, in the test on OVCAR-5 and with OVCAR-8 was > 100 µM (inactive) in each case. Moreover, the GI50 with SK-MEL-2, in the test with SN12C and with SW-620 was > 100 µM (inactive) in each case.
As for `CC(C)CC(O)P(=O)(O)O.NC1CCCCC1` (centres undefined), the GI50 in the test on 786-0, with A549, with COLO 205, with DU-145, in the test on EKVX and with HOP-62 was > 100 µM (inactive) in each case. Moreover, the GI50 with K562, with MDA-N, in the test on OVCAR-5, with RPMI-8226, in the test with SK-MEL-2 and in the test with SN12C was > 100 µM (inactive) throughout. Further, in the test with SW-620, the GI50 was > 100 µM (inactive).
In the case of `CC(=O)c1c[nH]cc1CO`, the GI50 in the test with 786-0, in the test on A549, in the test on COLO 205, with HOP-62, in the test with HOP-92 and with K562 was > 10 µM (inactive) in each case. Further, the GI50 in the test with LOX IMVI, with MDA-N, with NCI-H23, in the test with OVCAR-5, with OVCAR-8 and in the test with RPMI-8226 was > 10 µM (inactive) throughout. Further, the GI50 with SK-MEL-2, in the test with SN12C and in the test on SW-620 was > 10 µM (inactive) throughout.
With `CN1c2ccccc2C(=O)Nc2cnc(Cl)nc21`, the GI50 in the test with 786-0 is 35.8 µM (inactive); with A549, > 100 µM (inactive); with COLO 205, > 100 µM (inactive); with DU-145, > 100 µM (inactive); in the test on EKVX it was > 100 µM (inactive); in the test on HOP-62 it was 31.1 µM (inactive). Further, the GI50 was 35.7 µM (inactive) in the test on HOP-92; > 100 µM (inactive) in the test with K562; > 100 µM (inactive) in the test with LOX IMVI; > 100 µM (inactive) in the test with MDA-N; > 100 µM (inactive) with NCI-H23; > 100 µM (inactive) in the test with OVCAR-5. Also, the GI50 was 65.2 µM (inactive) with OVCAR-8; > 100 µM (inactive) in the test on RPMI-8226; > 100 µM (inactive) with SK-MEL-2; 66.7 µM (inactive) in the test on SN12C; > 100 µM (inactive) with SW-620.
For `Clc1ncnc(Cl)c1Cl`, the GI50 in the test with 786-0, in the test with A549, with COLO 205, in the test with DU-145, in the test with HOP-62 and in the test on HOP-92 was > 100 µM (inactive) in each case. Besides, the GI50 in the test on K562, with LOX IMVI, in the test on MDA-N, in the test with NCI-H23, with OVCAR-5 and in the test on OVCAR-8 was > 100 µM (inactive) each time. Moreover, the GI50 was 4.41 µM (inactive) with RPMI-8226, > 100 µM (inactive) in the test on SN12C and > 100 µM (inactive) with SW-620.
On to `O=C(OCCN1CCCCC1)C(c1ccccc1)C1(O)CCSCC1` (centres undefined), for which the GI50 with 786-0, with A549, with COLO 205, in the test on DU-145, with EKVX and with HOP-62 was > 100 µM (inactive) each time. In addition, the GI50 in the test with HOP-92, in the test on K562, in the test with LOX IMVI, in the test on MDA-N, in the test on NCI-H23 and with OVCAR-5 was > 100 µM (inactive) in each case. The GI50 in the test with OVCAR-8, in the test on RPMI-8226, with SK-MEL-2, with SN12C and in the test with SW-620 was > 100 µM (inactive) in each case.
Consider `ClCCc1ccccc1CC1=NCCc2ccccc21`, for which the GI50 with 786-0 is 42.6 µM (inactive); in the test on A549, 33.2 µM (inactive); with BT-549, 30.3 µM (inactive); in the test on COLO 205, 24 µM (inactive); in the test on DU-145, > 100 µM (inactive); in the test with EKVX, 22.1 µM (inactive). Further, the GI50 in the test on HOP-62 was 34.8 µM (inactive); with HOP-92 it was 28.1 µM (inactive); with K562, 28.4 µM (inactive); in the test on LOX IMVI, 76.7 µM (inactive); with NCI-H23, 21.5 µM (inactive); in the test with OVCAR-5 it was 40.6 µM (inactive). Besides, the GI50 in the test on OVCAR-8 was 28.4 µM (inactive); in the test on RPMI-8226, 16.3 µM (inactive); in the test on SK-MEL-2 it was 18.5 µM (inactive); in the test on SN12C it was 40.7 µM (inactive); with SW-620 it was 29.9 µM (inactive).
